Each block holds one molecule with its values, some of them ahead of it.
Legend:
[1] = system: hh’ (DNA, duplex) CATTTAGGACCAACACAA/TTGTGTTGGTCCTAAATG; assay: fluorescence quenching titration, Hill fit; details: 50 mM NaCl, 10 mM KCl, 5 mM MgCl2; Tris-HCl pH 7.4; 1.5 μM DOX titrated with nucleic acid; apparent; Hill n = 0.96 ± 0.03
[2] = system: GR20 (DNA, aptamer) ACGCACCATTTGTTTAATATGTTTTTTAATTCCCCTTGTGGTGTGT; assay: fluorescence quenching titration, Hill fit; details: 50 mM NaCl, 10 mM KCl, 5 mM MgCl2; Tris-HCl pH 7.4; 1.5 μM DOX titrated with nucleic acid; apparent; Hill n = 1.13 ± 0.03
[3] = system: U31 (DNA, aptamer) ATCCAGAGTGACGCAGCATTTGTTTAATATGTTTTTTAATTCCCCTTGTGGTGTGTTGTGGACACGGTGGCTTAGT; assay: fluorescence quenching titration, Hill fit; details: 50 mM NaCl, 10 mM KCl, 5 mM MgCl2; Tris-HCl pH 7.4; 1.5 μM DOX titrated with nucleic acid; apparent; Hill n = 0.95 ± 0.04
[4] = system: ACCO GR20hh’ (DNA, aptamer) ACGCACCATTTGTTTAATATGTTTTTTAATTCCCCTTGTGGTGTGTTTCATTTAGGACCAACACAA/TTGTGTTGGTCCTAAATG; assay: fluorescence quenching titration, Hill fit; details: 50 mM NaCl, 10 mM KCl, 5 mM MgCl2; Tris-HCl pH 7.4; 1.5 μM DOX titrated with nucleic acid; apparent; Hill n = 1.58 ± 0.09
[5] = molecular target: T1, EGFR* (recombinant extracellular domain of human EGFR) (human, UniProt P00533 25-645); assay: BLI; kon 3.7e5 M-1 s-1; koff 40e-4 s-1; BLI buffer and temperature not in the material; aptamers folded at 1 uM in PBS with 5 mM MgCl2 (95 C 5 min, slow cooling); ACCO assembled in PBS + 5 mM MgCl2 or Tris-HCl pH 7.4, 50 mM NaCl, 10 mM KCl, 5 mM MgCl2; details: protein: recombinant; 18 bp duplex of S5 with 3' end of S3; GR20 part imperfect hairpin (predicted)
[6] = molecular target: T1, EGFR* (recombinant extracellular domain …); assay: BLI; kon 2.0e5 M-1 s-1; koff 29e-4 s-1; possibly from the authors' earlier work [36], not marked as cited in table; BLI buffer and temperature not in the material; aptamers folded at 1 uM in PBS with 5 mM MgCl2 (95 C 5 min, slow cooling); ACCO assembled in PBS + 5 mM MgCl2 or Tris-HCl pH 7.4, 50 mM NaCl, 10 mM KCl, 5 mM MgCl2; details: protein: recombinant; imperfect hairpins (predicted)
[7] = molecular target: T1, EGFR* (recombinant extracellular domain …); assay: BLI; kon 4.3e5 M-1 s-1; koff 61e-4 s-1; BLI buffer and temperature not in the material; aptamers folded at 1 uM in PBS with 5 mM MgCl2 (95 C 5 min, slow cooling); ACCO assembled in PBS + 5 mM MgCl2 or Tris-HCl pH 7.4, 50 mM NaCl, 10 mM KCl, 5 mM MgCl2; details: protein: recombinant; imperfect hairpin (predicted)

aKd [1]: 124 ± 3 nM
aKd [2]: 90 ± 3 nM
aKd [3]: 47 ± 3 nM
aKd [4]: 26 ± 1 nM
Molecule: COc1cccc2c1C(=O)c1c(O)c3c(c(O)c1C2=O)C[C@@](O)(C(=O)CO)C[C@@H]3O[C@H]1C[C@H](N)[C@H](O)[C@H](C)O1

B1: ACCO GR20hh' (mixed)
DNA 1: ACGCACCATTTGTTTAATATGTTTTTTAATTCCCCTTGTGGTGTGTTTCATTTAGGACCAACACAA
DNA 2: TTGTGTTGGTCCTAAATG
Kd [5]: 10.8 ± 1.4 nM

B2: U31 (ssDNA)
DNA: ATCCAGAGTGACGCAGCATTTGTTTAATATGTTTTTTAATTCCCCTTGTGGTGTGTTGTGGACACGGTGGCTTAGT
Kd [6]: 15 ± 1.7 nM

B3: GR20 (ssDNA)
DNA: ACGCACCATTTGTTTAATATGTTTTTTAATTCCCCTTGTGGTGTGT
Kd [7]: 14.2 ± 0.5 nM

Source: paper PMC12429564
